# Calls of active or inactive are those of the source. How the calls were made is not given here.
# System: GENE-TOX genotoxicity assays, various organisms and cells
# Experiment: GENE-TOX mutagenicity studies
# Conditions: for call: Assay Type: In vivo carcinogenicity studies
# Text: GENE-TOX provides genetic toxicology (mutagenicity) test data from expert peer review of open scientific literature for more than 3,000 chemicals from the United States Environmental Protection Agency (EPA). GENE-TOX was established to select assay systems for evaluation, review data in the scientific literature, and recommend proper testing protocols and evaluation procedures for these systems.
# GENE-TOX covers the years 1991 - 1998. It is no longer updated.
# This is an archive assay for GENE-TOX mutagenicity studies.
# [1] = Species/Cell Type: Drosophila melanogaster, Assay Type: Sex-linked recessive lethal gene mutation, Assay Code: SRLT, Evaluation Type: Evaluation A (Pre-1980)
# [2] = Species/Cell Type: Escherichia coli polA (W3119 vs P3478), Assay Type: Rec-assay, DNA effects (bacterial DNA repair), Assay Code: RE1T, Evaluation Type: Evaluation A (Pre-1980)
# [3] = Species/Cell Type: Fischer rat embryo (RLV/1706) cells, Assay Type: Cell transformation, viral enhanced, Assay Code: CTR+, Evaluation Type: Evaluation A (Pre-1980)
# [4] = Species/Cell Type: Mouse (BALB/c-3T3) cells, Assay Type: Cell transformation, Assay Code: CTB-, Evaluation Type: Evaluation A (Pre-1980)
# [5] = Species/Cell Type: Nonhuman, Assay Code: CCG+, Evaluation Type: Evaluation A (Pre-1980)
# [6] = Species/Cell Type: Nonhuman, Assay Type: Sister-chromatid exchange (SCE) in vitro, Assay Code: SC2+, Evaluation Type: Evaluation B (Post-1980)
# [7] = Species/Cell Type: Nonhuman, Assay Type: Sister-chromatid exchange (SCE) in vivo, Assay Code: SC3+, Evaluation Type: Evaluation B (Post-1980)
# [8] = Species/Cell Type: Nonhuman, Assay Type: Sister-chromatid exchange (SCE) in vivo, Assay Code: SC3T, Evaluation Type: Evaluation A (Pre-1980)
# [9] = Species/Cell Type: Saccharomyces cerevisiae, Assay Type: Mitotic recombination or gene conversion, Assay Code: YEH-, Evaluation Type: Evaluation A (Pre-1980)
# [10] = Species/Cell Type: Salmonella typhimurium (one or more of the five standard strains: TA98, TA100, TA1535, TA1537, and TA1538), Assay Type: Histidine reverse gene mutation, Ames assay, Assay Code: SAL+*, Activation: With metabolic activation, Evaluation Type: Evaluation A (Pre-1980)
# [11] = Species/Cell Type: Salmonella typhimurium, Assay Type: Forward and reverse gene mutation, host-mediated assay, Assay Code: HMA+, Evaluation Type: Evaluation A (Pre-1980)
# [12] = Species/Cell Type: Syrian hamster embryo (SHE) cells, Assay Type: Cell transformation, clonal assay, Assay Code: CTC+, Evaluation Type: Evaluation A (Pre-1980)
# [13] = Species/Cell Type: Human diploid fibroblasts, Assay Type: Unscheduled DNA synthesis (UDS) in vitro, DNA effects, Assay Code: UDH-, Evaluation Type: Evaluation A (Pre-1980)
# [14] = Species/Cell Type: Escherichia coli WP2, Assay Type: Tryptophan reverse gene mutation, Assay Code: WP2+, Evaluation Type: Evaluation A (Pre-1980)
# [15] = Species/Cell Type: Escherichia coli WP2 UVRA, Assay Type: Tryptophan reverse gene mutation, Assay Code: WPU+, Evaluation Type: Evaluation A (Pre-1980)
# [16] = Species/Cell Type: Escherichia coli polA (W3119 vs P3478), Assay Type: Rec-assay, DNA effects (bacterial DNA repair), Assay Code: RE1+, Evaluation Type: Evaluation A (Pre-1980)
# [17] = Species/Cell Type: Neurospora crassa, Assay Type: Aneuploidy, chromosome aberrations, Assay Code: NEN-, Evaluation Type: Evaluation A (Pre-1980)
# [18] = Species/Cell Type: Salmonella typhimurium (one or more of the five standard strains: TA98, TA100, TA1535, TA1537, and TA1538), Assay Type: Histidine reverse gene mutation, Ames assay, Assay Code: SALT, Evaluation Type: Evaluation A (Pre-1980)
# [19] = Species/Cell Type: Salmonella typhimurium (one or more of the five standard strains: TA98, TA100, TA1535, TA1537, and TA1538), Assay Type: Histidine reverse gene mutation, Ames assay, Assay Code: SAL+, Evaluation Type: Evaluation A (Pre-1980)
smiles,measurement,setting,value
c1ccc2cc3c(ccc4ccccc43)cc2c1,mutagenic call,"Species/Cell Type: Chinese hamster lung (V79) cells, Assay Type: Forward gene mutation at the HPRT or ouabain locus, Assay Code: V79+*, Activation: With metabolic activation, Evaluation Type: Evaluation A (Pre-1980)",active; positive
same,mutagenic call,[1],no conclusion
same,mutagenic call,[2],no conclusion
same,mutagenic call,[3],active; positive
same,mutagenic call,"Species/Cell Type: Human diploid fibroblasts, Assay Type: Unscheduled DNA synthesis (UDS) in vitro, DNA effects, Assay Code: UDHT, Evaluation Type: Evaluation A (Pre-1980)",no conclusion
same,mutagenic call,[4],inactive; negative
same,mutagenic call,"Species/Cell Type: Mouse prostate cells, Assay Type: Cell transformation, Assay Code: CTM+, Evaluation Type: Evaluation A (Pre-1980)",active; positive
same,call,[5],active; positive
same,mutagenic call,[6],active; positive
same,mutagenic call,[7],active; positive
same,mutagenic call,[8],no conclusion
same,mutagenic call,"Species/Cell Type: Rat primary hepatocytes, Assay Type: Unscheduled DNA synthesis (UDS) in vitro, DNA effects, Assay Code: UDP-, Evaluation Type: Evaluation A (Pre-1980)",inactive; negative
same,mutagenic call,[9],inactive; negative
same,mutagenic call,[10],active; positive
same,mutagenic call,[11],active; positive
same,mutagenic call,[12],active; positive
c1ccc2c(c1)ccc1ccccc12,mutagenic call,"Species/Cell Type: Allium cepa, Assay Type: Chromosome aberrations, Assay Code: ALC+, Evaluation Type: Evaluation A (Pre-1980)",active; positive
same,mutagenic call,"Species/Cell Type: Escherichia coli polA (W3110 vs P3478), Assay Type: Rec-assay, DNA effects (bacterial DNA repair), Assay Code: RE2-, Evaluation Type: Evaluation A (Pre-1980)",inactive; negative
same,mutagenic call,[2],no conclusion
same,mutagenic call,"Species/Cell Type: Fischer rat embryo (RLV/1706) cells, Assay Type: Cell transformation, viral enhanced, Assay Code: CTRT, Evaluation Type: Evaluation A (Pre-1980)",no conclusion
same,mutagenic call,[13],inactive; negative
same,mutagenic call,"Species/Cell Type: Mammalian polychromatic erythrocytes, Assay Type: Micronucleus test, chromosome aberrations, Assay Code: MNTT, Evaluation Type: Evaluation A (Pre-1980)",no conclusion
same,mutagenic call,[4],inactive; negative
same,mutagenic call,"Species/Cell Type: Mouse embryo (AKR/ME) cells, Assay Type: Cell transformation, Assay Code: CTK+, Evaluation Type: Evaluation A (Pre-1980)",active; positive
same,mutagenic call,"Species/Cell Type: Mouse prostate cells, Assay Type: Cell transformation, Assay Code: CTM-, Evaluation Type: Evaluation A (Pre-1980)",inactive; negative
same,mutagenic call,"Species/Cell Type: Nonhuman, Assay Type: Chromosome aberrations in vitro, Assay Code: CY&-, Evaluation Type: Evaluation A (Pre-1980)",inactive; negative
same,call,"Species/Cell Type: Nonhuman, Assay Code: CCGT, Evaluation Type: Evaluation A (Pre-1980)",no conclusion
same,mutagenic call,"Species/Cell Type: Nonhuman, Assay Type: Sister-chromatid exchange (SCE) in vitro, Assay Code: SC2-, Evaluation Type: Evaluation A (Pre-1980)",inactive; negative
same,mutagenic call,[7],active; positive
same,mutagenic call,[8],no conclusion
same,mutagenic call,[9],inactive; negative
same,mutagenic call,"Species/Cell Type: Salmonella typhimurium (one or more of the five standard strains: TA98, TA100, TA1535, TA1537, and TA1538), Assay Type: Histidine reverse gene mutation, Ames assay, Assay Code: SAL-, Evaluation Type: Evaluation A (Pre-1980)",inactive; negative
same,mutagenic call,"Species/Cell Type: Salmonella typhimurium, Assay Type: Forward and reverse gene mutation, host-mediated assay, Assay Code: HMA-, Evaluation Type: Evaluation A (Pre-1980)",inactive; negative
same,mutagenic call,"Species/Cell Type: Syrian hamster embryo (SHE) cells, Assay Type: Cell transformation, clonal assay, Assay Code: CTC-, Evaluation Type: Evaluation A (Pre-1980)",inactive; negative
N#Cc1ccc2ccccc2c1,mutagenic call,"Species/Cell Type: Allium cepa, Assay Type: Chromosome aberrations, Assay Code: ALC+D, Dose Response: With dose response, Evaluation Type: Evaluation A (Pre-1980)",active; positive
O=C1OC(CN2CCOCC2)CN1/N=C/c1ccc([N+](=O)[O-])o1 (centres undefined),mutagenic call,[14],active; positive
same,mutagenic call,[15],active; positive
same,mutagenic call,"Species/Cell Type: Escherichia coli WP2 UVRA, Assay Type: Tryptophan reverse gene mutation, Assay Code: WPU+D, Dose Response: With dose response, Evaluation Type: Evaluation A (Pre-1980)",active; positive
same,call,[5],active; positive
O=c1cc(O)c2ccccc2[nH]1,mutagenic call,[10],active; positive
NC(=O)N1c2ccccc2C=Cc2cc(O)ccc21,mutagenic call,"Species/Cell Type: Human lymphocytes, Assay Type: Sister-chromatid exchange (SCE) in vitro, Assay Code: SCLT, Evaluation Type: Evaluation B (Post-1980)",no conclusion
same,mutagenic call,"Species/Cell Type: Human, Assay Type: Sister-chromatid exchange (SCE) in vitro, Assay Code: SC1T, Evaluation Type: Evaluation B (Post-1980)",no conclusion
CCN(CC)CCNc1ccc(C)c2sc3ccccc3c(=O)c12,mutagenic call,"Species/Cell Type: Drosophila melanogaster, Assay Type: Aneuploidy, whole sex chromosome loss, chromosome aberrations, Assay Code: DAC+M, Evaluation Type: Evaluation A (Pre-1980)",active; positive
same,mutagenic call,"Species/Cell Type: Drosophila melanogaster, Assay Type: Sex-linked recessive lethal gene mutation, Assay Code: SRL+, Evaluation Type: Evaluation A (Pre-1980)",active; positive
same,mutagenic call,[16],active; positive
same,mutagenic call,[3],active; positive
same,mutagenic call,"Species/Cell Type: Mouse lymphoma (L5178Y) cells, Assay Type: Forward gene mutation at the thymidine kinase (TK) locus, chromosome aberrations, Assay Code: L51+, Evaluation Type: Evaluation A (Pre-1980)",active; positive
same,mutagenic call,[17],inactive; negative
same,mutagenic call,"Species/Cell Type: Neurospora crassa, Assay Type: Forward gene mutation, Assay Code: NEF+, Evaluation Type: Evaluation A (Pre-1980)",active; positive
same,mutagenic call,[10],active; positive
same,mutagenic call,[18],no conclusion
CN(C)c1ccc(Cc2ccc(N(C)C)cc2)cc1,mutagenic call,[16],active; positive
same,mutagenic call,[3],active; positive
same,mutagenic call,[13],inactive; negative
same,call,[5],active; positive
same,mutagenic call,[6],active; positive
same,mutagenic call,[9],inactive; negative
same,mutagenic call,[11],active; positive
same,mutagenic call,[12],active; positive
Cc1cccc(N(C)C(=S)Oc2ccc3ccccc3c2)c1,mutagenic call,[17],inactive; negative
Nc1ccc(O)c2c1C(=O)c1ccccc1C2=O,mutagenic call,[19],active; positive
Nc1ccc(S(=O)(=O)O)c2ccccc12,mutagenic call,[18],no conclusion
CCBr,mutagenic call,[1],no conclusion
NCCBr,mutagenic call,"Species/Cell Type: Schizosaccharomyces pombe, Assay Type: Reverse gene mutation, Assay Code: YEZ+, Evaluation Type: Evaluation A (Pre-1980)",active; positive
CC(=O)c1ccc([N+](=O)[O-])o1,mutagenic call,[19],active; positive
O=[N+]([O-])c1ccc(-c2csc(Cl)n2)o1,mutagenic call,[14],active; positive
same,mutagenic call,[15],active; positive
O=NN1CCC[C@H]1c1cccnc1,call,[5],active; positive
same,mutagenic call,"Species/Cell Type: Rat primary hepatocytes, Assay Type: Unscheduled DNA synthesis (UDS) in vitro, DNA effects, Assay Code: UDP+, Evaluation Type: Evaluation A (Pre-1980)",active; positive
COc1ccc(-c2c(-c3ccc(OC)cc3)c3ccc(OC)cc3c3cc(OC)ccc23)cc1,mutagenic call,[18],no conclusion
Nc1ncnc2c1ncn2[C@@H]1O[C@H](CO)C[C@H]1O,mutagenic call,"Species/Cell Type: Fischer rat embryo (RLV/1706) cells, Assay Type: Cell transformation, viral enhanced, Assay Code: CTR-, Evaluation Type: Evaluation A (Pre-1980)",inactive; negative
same,mutagenic call,"Species/Cell Type: Nonhuman, Assay Type: Sister-chromatid exchange (SCE) in vitro, Assay Code: SC2T, Evaluation Type: Evaluation B (Post-1980)",no conclusion
Cc1cc2cc3ccccc3cc2c2ccccc12,mutagenic call,"Species/Cell Type: Nonhuman, Assay Type: Sister-chromatid exchange (SCE) in vitro, Assay Code: SC2+D, Dose Response: With dose response, Evaluation Type: Evaluation B (Post-1980)",active; positive
same,mutagenic call,[10],active; positive

# Source: PubChem BioAssay AID1259408 (Genetic Toxicology Data Bank (GENE-TOX), 2018)
